Species: Rattus norvegicus
Test: Open TG-GATES - Regimen: Single
Format: toxicity, organism-based, Sprague-Dawley
Set-up: regimen Single, gender Male, age 6 weeks
Details: in vivo, po, 300 mg/kg, route gavage, dose level Middle; for APTT / Bas / Eos / Fbg / Hb / Ht / Lym / MCH / MCHC / MCV / Mono / Neu / PT / Plat / RBC / Ret / WBC: tissue Blood; for KIDNEY_L / KIDNEY_R / KIDNEY_TOTAL: tissue Kidney; for LIVER: tissue Liver; for A/G / ALP / ALT / AST / BUN / CRE / Ca / Cl / DBIL / GLC / IP / LDH / Na / PL / RALB / TBIL / TC / TG / TP / gamma-GTP: tissue Plasma

NC(N)=Nc1nc(CSCCC(N)=NS(N)(=O)=O)cs1 [FAMOTIDINE]
TERMINAL_BW (3 h): 215.2 g
APTT (3 h): 21.3 s
Bas (3 h): 0%
Eos (3 h): 1%
Fbg (3 h): 213.2 mg/dL
Hb (3 h): 13.4 g/dL
Ht (3 h): 37.9%
Lym (3 h): 76.2%
MCH (3 h): 22.4 pg
MCHC (3 h): 35.3%
MCV (3 h): 63.4 fL
Mono (3 h): 2.8%
Neu (3 h): 17.8%
PT (3 h): 12.6 s
Plat (3 h): 116.7 x10_4/uL
RBC (3 h): 598 x10_4/ul
Ret (3 h): 7.6%
WBC (3 h): 82 x10_2/uL
KIDNEY_L (3 h): 1 g
KIDNEY_R (3 h): 1 g
KIDNEY_TOTAL (3 h): 1.9 g
LIVER (3 h): 10.1 g
A/G (3 h): 1.6
ALP (3 h): 814.6 IU/L
ALT (3 h): 34.2 IU/L
AST (3 h): 66.4 IU/L
BUN (3 h): 9.6 mg/dL
CRE (3 h): 0.4 mg/dL
Ca (3 h): 10.6 mg/dL
Cl (3 h): 104.2 meq/L
DBIL (3 h): 0.07 mg/dL
GLC (3 h): 197.8 mg/dL
IP (3 h): 9 mg/dL
LDH (3 h): 230 IU/L
Na (3 h): 140.8 meq/L
PL (3 h): 146 mg/dL
RALB (3 h): 3.4 g/dL
TBIL (3 h): 0.1 mg/dL
TC (3 h): 77.2 mg/dL
TG (3 h): 69.4 mg/dL
TP (3 h): 5.5 g/dL
gamma-GTP (3 h): 1.2 IU/L
TERMINAL_BW (6 h): 211.7 g
APTT (6 h): 18.9 s
Bas (6 h): 0%
Eos (6 h): 1%
Fbg (6 h): 204.6 mg/dL
Hb (6 h): 13.5 g/dL
Ht (6 h): 37.8%
Lym (6 h): 75%
MCH (6 h): 22.3 pg
MCHC (6 h): 35.6%
MCV (6 h): 62.7 fL
Mono (6 h): 2.4%
Neu (6 h): 18.4%
PT (6 h): 12.8 s
Plat (6 h): 109.6 x10_4/uL
RBC (6 h): 604.4 x10_4/ul
Ret (6 h): 7.4%
WBC (6 h): 97.9 x10_2/uL
KIDNEY_L (6 h): 1 g
KIDNEY_R (6 h): 0.9 g
KIDNEY_TOTAL (6 h): 1.9 g
LIVER (6 h): 9 g
A/G (6 h): 1.6
ALP (6 h): 896.8 IU/L
ALT (6 h): 32.8 IU/L
AST (6 h): 66.8 IU/L
BUN (6 h): 8.4 mg/dL
CRE (6 h): 0.4 mg/dL
Ca (6 h): 10.4 mg/dL
Cl (6 h): 103.8 meq/L
DBIL (6 h): 0.07 mg/dL
GLC (6 h): 195 mg/dL
IP (6 h): 9 mg/dL
LDH (6 h): 177.2 IU/L
Na (6 h): 140.8 meq/L
PL (6 h): 131.2 mg/dL
RALB (6 h): 3.2 g/dL
TBIL (6 h): 0.1 mg/dL
TC (6 h): 73.2 mg/dL
TG (6 h): 46.2 mg/dL
TP (6 h): 5.2 g/dL
gamma-GTP (6 h): 2 IU/L
TERMINAL_BW (9 h): 209.6 g
APTT (9 h): 18.9 s
Bas (9 h): 0%
Eos (9 h): 0.8%
Fbg (9 h): 225.4 mg/dL
Hb (9 h): 13.4 g/dL
Ht (9 h): 37.4%
Lym (9 h): 76.8%
MCH (9 h): 22.3 pg
MCHC (9 h): 35.7%
MCV (9 h): 62.3 fL
Mono (9 h): 2.4%
Neu (9 h): 19.2%
PT (9 h): 12.1 s
Plat (9 h): 117.6 x10_4/uL
RBC (9 h): 601.6 x10_4/ul
Ret (9 h): 7.2%
WBC (9 h): 77.6 x10_2/uL
KIDNEY_L (9 h): 0.9 g
KIDNEY_R (9 h): 1 g
KIDNEY_TOTAL (9 h): 1.9 g
LIVER (9 h): 8.7 g
A/G (9 h): 1.6
ALP (9 h): 898 IU/L
ALT (9 h): 26.6 IU/L
AST (9 h): 59 IU/L
BUN (9 h): 10 mg/dL
CRE (9 h): 0.4 mg/dL
Ca (9 h): 10.3 mg/dL
Cl (9 h): 103.6 meq/L
DBIL (9 h): 0.064 mg/dL
GLC (9 h): 195.2 mg/dL
IP (9 h): 8.8 mg/dL
LDH (9 h): 125 IU/L
Na (9 h): 140.2 meq/L
PL (9 h): 130 mg/dL
RALB (9 h): 3.3 g/dL
TBIL (9 h): 0.1 mg/dL
TC (9 h): 67.8 mg/dL
TG (9 h): 47.6 mg/dL
TP (9 h): 5.4 g/dL
gamma-GTP (9 h): 0.6 IU/L
TERMINAL_BW (24 h): 227 g
APTT (24 h): 20.8 s
Bas (24 h): 0%
Eos (24 h): 1%
Fbg (24 h): 225.8 mg/dL
Hb (24 h): 13.4 g/dL
Ht (24 h): 37.6%
Lym (24 h): 78.2%
MCH (24 h): 22.4 pg
MCHC (24 h): 35.6%
MCV (24 h): 63.1 fL
Mono (24 h): 3.8%
Neu (24 h): 15.6%
PT (24 h): 12.1 s
Plat (24 h): 114.2 x10_4/uL
RBC (24 h): 596.2 x10_4/ul
Ret (24 h): 6.6%
WBC (24 h): 78.3 x10_2/uL
KIDNEY_L (24 h): 1 g
KIDNEY_R (24 h): 1 g
KIDNEY_TOTAL (24 h): 2 g
LIVER (24 h): 11 g
A/G (24 h): 1.5
ALP (24 h): 1146.8 IU/L
ALT (24 h): 33.2 IU/L
AST (24 h): 62.8 IU/L
BUN (24 h): 13.2 mg/dL
CRE (24 h): 0.4 mg/dL
Ca (24 h): 10.5 mg/dL
Cl (24 h): 103.6 meq/L
DBIL (24 h): 0.074 mg/dL
GLC (24 h): 194.2 mg/dL
IP (24 h): 8 mg/dL
LDH (24 h): 176.6 IU/L
Na (24 h): 140.6 meq/L
PL (24 h): 153 mg/dL
RALB (24 h): 3.3 g/dL
TBIL (24 h): 0.1 mg/dL
TC (24 h): 82.8 mg/dL
TG (24 h): 86.8 mg/dL
TP (24 h): 5.6 g/dL
gamma-GTP (24 h): 0.8 IU/L
